Laboratory results: the NIST ThermoML archive (doi:10.1016/j.jct.2011.06.001)

What was measured:
[1] = Crystal; DTA
[2] = Molar enthalpy of transition or fusion; conditions: Crystal; DSC
[3] = molar heat capacity at constant pressure; conditions: 101.33 kPa, Small sample (50 mg) DSC
[4] = molar enthalpy of vaporization or sublimation; conditions: 333.15 K, Crystal

[CH]1C=CC=C1.[CH]1C=CC=C1.[Fe] [ferrocene]
Conditions | Molar enthalpy of transition or fusion [kcal/mol] | Normal melting temperature [°C]
[1] | – | 175
[2] | 4.25 | –

molar heat capacity at constant pressure [J/K/mol], [3]
Conditions | Crystal | Gas
293 K | 186.22 | 163.5
294 K | 186.78 | 164.13
295 K | 187.52 | 164.76
296 K | 188.08 | 165.39
297 K | 189.01 | 166.02
298 K | 189.75 | 166.65
298.15 K | 189.75 | –
299 K | 190.5 | 167.27
300 K | 191.24 | 167.9
301 K | 191.8 | 168.53
302 K | 192.36 | 169.15
303 K | 193.1 | 169.78
304 K | 193.84 | 170.4
305 K | 194.4 | 171.03
306 K | 195.15 | 171.65
307 K | 195.7 | 172.27
308 K | 196.45 | 172.9
309 K | 197.19 | 173.52
310 K | 197.94 | 174.14
311 K | 198.31 | 174.76
312 K | 199.24 | 175.38
313 K | 199.8 | 176
314 K | 200.54 | 176.61
315 K | 201.29 | 177.23
316 K | 202.03 | 177.85
317 K | 202.77 | 178.46
318 K | 203.33 | 179.07
319 K | 204.08 | 179.69
320 K | 204.45 | 180.3
321 K | 205.38 | 180.91
322 K | 205.94 | 181.52
323 K | 207.05 | 182.13
324 K | 207.61 | 182.74
325 K | 208.35 | 183.35
326 K | 209.1 | 183.96
327 K | 209.66 | 184.56
328 K | 210.22 | 185.17
329 K | 210.77 | 185.77
330 K | 211.33 | 186.37
331 K | 212.26 | 186.98
332 K | 213.01 | 187.58
333 K | 213.75 | 188.18
334 K | 214.49 | 188.78
335 K | 215.24 | 189.37
336 K | 215.8 | 189.97
337 K | 216.54 | 190.57
338 K | 217.28 | 191.16
339 K | 218.21 | 191.76
340 K | 218.77 | 192.35
341 K | 219.7 | 192.94
342 K | 220.26 | 193.53
343 K | 221.01 | 194.12
344 K | 221.56 | 194.71
345 K | 222.49 | 195.3
346 K | 223.24 | 195.88
347 K | 223.8 | 196.47
348 K | 223.98 | 197.05
349 K | 225.1 | 197.64
350 K | 226.77 | 198.22
351 K | 226.59 | 198.8
352 K | 226.96 | 199.38
353 K | 227.7 | 199.96

[4]
Conditions | molar enthalpy [kcal/mol]
DSC | 17.3
Static calorimetry | 17.5
